According to patent US20190134005A1 (BioMarin Pharmaceutical Inc., priority 2016, published 2019):
Where two headings read alike, the source gives them in different places.

Biological target: T1, human CGT (Homo sapiens, UniProt Q16880)
T1 sequence (Q16880 21-541): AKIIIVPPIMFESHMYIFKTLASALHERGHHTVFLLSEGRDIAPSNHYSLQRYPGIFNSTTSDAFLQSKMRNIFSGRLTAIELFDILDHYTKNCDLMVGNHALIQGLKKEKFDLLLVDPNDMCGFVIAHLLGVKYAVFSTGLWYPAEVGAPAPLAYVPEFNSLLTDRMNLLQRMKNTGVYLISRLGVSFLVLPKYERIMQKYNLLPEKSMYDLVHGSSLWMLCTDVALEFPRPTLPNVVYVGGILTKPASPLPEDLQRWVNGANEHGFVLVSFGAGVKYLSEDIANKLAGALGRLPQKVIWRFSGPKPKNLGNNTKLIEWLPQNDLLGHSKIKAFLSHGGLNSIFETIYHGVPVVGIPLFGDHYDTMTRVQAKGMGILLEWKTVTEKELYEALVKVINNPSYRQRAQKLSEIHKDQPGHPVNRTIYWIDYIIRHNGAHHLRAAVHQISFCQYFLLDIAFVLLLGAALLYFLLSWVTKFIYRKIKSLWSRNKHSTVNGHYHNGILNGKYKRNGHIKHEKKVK
Experiment: Assay 1: CGT Enzymatic Assay (RapidFire/MS/MS, 0.01% Tween 80)
Type: biochemical
Details: Table 1, Compounds of Formula (I) and Formula (II), CGT enzymatic assay, read-out: IC50

[1] = C6-NBD-dihydro-galactosylceramide readout

Row | IC50 | IC50 [1] | SMILES
1 | < 1000 nM | – | CCC1N(c2ccc(Br)cc2)C(=O)N(c2ccc(Br)cc2)C1(O)c1cccc(C(F)(F)F)c1 (stereo not shown) [Compound 67, 1,3-bis(4-bromophenyl)-5-ethyl-4-hydroxy-4-(3-(trifluoromethyl)phenyl)imidazolidin-2-one]
2 | 1000 to 10000 nM | – | CCCc1c(-c2ccccc2)n(-c2ccc(Br)cc2)c(=O)n1-c1ccc(Br)cc1 [Compound 261, 1,3-bis(4-bromophenyl)-4-phenyl-5-propyl-1,3-dihydro-2H-imidazol-2-one]
3 | < 1000 nM | – | CC1(C)N(c2ccc(Cl)cc2)C(=O)N(c2ccc(Cl)cc2)C1(O)c1cc(C#N)cc(C#N)c1 (stereo not shown) [Example 188, 5-(1,3-bis(4-chlorophenyl)-4-hydroxy-5,5-dimethyl-2-oxoimidazolidin-4-yl)isophthalonitrile]
4 | < 1000 nM | – | N#Cc1cc(Cl)cc(C2(O)CN(c3ccc(Br)cc3)C(=O)N2c2ccc(Cl)cc2)c1 (stereo not shown) [Compound 110, 3-(1-(4-bromophenyl)-3-(4-chlorophenyl)-4-hydroxy-2-oxoimidazolidin-4-yl)-5-chlorobenzonitrile]
5 | < 1000 nM | – | CC1N(c2ccc(F)cc2)C(=O)N(c2ccc(F)cc2)C1(O)c1cccc(OC(F)(F)F)c1 (stereo not shown) [Compound 130, 1,3-bis(4-fluorophenyl)-4-hydroxy-5-methyl-4-(3-(trifluoromethoxy)phenyl)imidazolidin-2-one]
6 | 50000 to 100000 nM | – | O=C1N(c2ccc(Br)cc2)CC(O)(c2cc3ccccc3s2)N1c1ccc(Br)cc1 (stereo not shown) [Example 8, 4-(benzo[b]thiophen-2-yl)-1,3-bis(4-bromophenyl)-4-hydroxyimidazolidin-2-one]
7 | < 1000 nM | – | CC1(c2cccc(Cl)c2)C(O)N(c2ccc(Cl)cc2)C(=O)N1c1ccc(Cl)cc1 (stereo not shown) [Compound 149, 4-(3-chlorophenyl)-1,3-bis(4-chlorophenyl)-5-hydroxy-4-methylimidazolidin-2-one]
8 | < 1000 nM | – | CCC[C@@H]1N(c2ccc(Cl)cc2)C(=O)N(c2ccc(Cl)cc2)C1(O)c1cccc(CC)c1 (stereo partly drawn) [Compound 89-1, (5S)-1,3-bis(4-chlorophenyl)-4-(3-ethylphenyl)-4-hydroxy-5-propylimidazolidin-2-one]
9 | 1000 to 10000 nM | – | O=C1N(c2ccc(Br)cc2)CC(O)(c2ccccc2)N1c1ccc(Cl)cc1 (stereo not shown) [Example 43, 1-(4-bromophenyl)-3-(4-chlorophenyl)-4-hydroxy-4-phenylimidazolidin-2-one]
10 | < 1000 nM | – | O=C1N(c2ccc(Cl)cc2)[C@@]2(CCOC2)[C@](O)(c2cccc(OC(F)(F)F)c2)N1c1ccc(Cl)cc1 [Compound 234-3, (4R,5R)-1,3-bis(4-chlorophenyl)-4-hydroxy-4-(3-(trifluoromethoxy)phenyl)-7-oxa-1,3-diazaspiro[4.4]nonan-2-one]
11 | – | < 1000 nM | Cc1ccc(N2C(=O)N(c3ccc(C)cc3)C(O)(c3cccc(C(F)F)c3)C23COC3)cc1 (stereo not shown) [Compound 285, 8-(3-(difluoromethyl)phenyl)-8-hydroxy-5,7-di-p-tolyl-2-oxa-5,7-diazaspiro[3.4]octan-6-one]
12 | < 1000 nM | – | O=C1N(c2ccc(Cl)cc2)C2(CCCC2)C(O)(c2cccc(OC(F)(F)F)c2)N1c1ccc(Cl)cc1 (stereo not shown) [Compound 146, 1,3-bis(4-chlorophenyl)-4-hydroxy-4-(3-(trifluoromethoxy)phenyl)-1,3-diazaspiro[4.4]nonan-2-one]
13 | < 1000 nM | – | O=C1N(c2ccc(Br)cc2)C(C2CC2)C(O)(c2ccccc2)N1c1ccc(Br)cc1 (stereo not shown) [Compound 115, 1,3-bis(4-bromophenyl)-5-cyclopropyl-4-hydroxy-4-phenylimidazolidin-2-one]
14 | < 1000 nM | – | CC1(C)N(c2ccc(Cl)cc2)C(=O)N(c2ccc(Cl)cc2)C1(O)c1cncc(C#N)c1 (stereo not shown) [Example 186, 5-(1,3-bis(4-chlorophenyl)-4-hydroxy-5,5-dimethyl-2-oxoimidazolidin-4-yl)nicotinonitrile]
15 | < 1000 nM | – | CCc1c(-c2cccc(C(F)(F)F)c2)n(-c2ccc(Cl)cc2)c(=O)n1-c1ccc(Cl)cc1 [Example 40, 1,3-bis(4-chlorophenyl)-4-ethyl-5-(3-(trifluoromethyl)phenyl)-1,3-dihydro-2H-imidazol-2-one]
16 | > 50000 nM | – | O=C1N(c2ccccc2)C(=O)C(O)(c2ccc(OC3CC3)cc2)N1c1ccccc1 (stereo not shown) [Compound 156, 5-(4-cyclopropoxyphenyl)-5-hydroxy-1,3-diphenylimidazolidine-2,4-dione]
17 | 10000 to 50000 nM | – | CCc1ccc(N2C(=O)N(c3ccc(CC)cc3)C(O)(c3cccc(C#N)c3)[C@@H]2C)cc1 (single isomer, unassigned) [Compound 104-1]
18 | – | < 1000 nM | CC1(C)N(c2ccc(Cl)cc2)C(=O)N(c2ccc(Cl)cc2)C1(O)c1cccc(C2CCO2)c1 (stereo not shown) [Example 324-1, 1,3-bis(4-chlorophenyl)-4-hydroxy-5,5-dimethyl-4-(3-(oxetan-2-yl)phenyl)imidazolidin-2-one]
19 | 10000 to 50000 nM | – | O=C1N(c2ccc(Cl)cc2)CC(O)(c2ccccc2)N1c1ccc(Br)cc1 (stereo not shown) [Example 38, 3-(4-bromophenyl)-1-(4-chlorophenyl)-4-hydroxy-4-phenylimidazolidin-2-one]
20 | 10000 to 50000 nM | – | C[C@]1(c2cccc(C(F)(F)F)c2)C(O)N(c2ccc(Br)cc2)C(=O)N1c1ccc(Br)cc1 (stereo partly drawn) [Example 219-1, (4S)-1,3-bis(4-bromophenyl)-5-hydroxy-4-methyl-4-(3-(trifluoromethyl)phenyl)imidazolidin-2-one]
21 | – | < 1000 nM | Cc1ccc(N2C(=O)N(c3ccc(C#N)cc3)C(C)(C)C2(O)c2cccc(C#N)c2)cc1 (stereo not shown) [Compound 270, 3-(1-(4-cyanophenyl)-4-hydroxy-5,5-dimethyl-2-oxo-3-(p-tolyl)imidazolidin-4-yl)benzonitrile]
22 | – | < 1000 nM | N#Cc1ccc(N2C(=O)N(c3ccc(C#N)cc3)C(O)(c3cccc(OC(F)(F)F)c3)C23CCC3)cc1 (stereo not shown) [Compound 293, 4,4′-(8-hydroxy-6-oxo-8-(3-(trifluoromethoxy)phenyl)-5,7-diazaspiro[3.4]octane-5,7-diyl)dibenzonitrile]
23 | > 50000 nM | – | COc1cccc([C@@]2(C)C(O)N(c3ccc(Br)cc3)C(=O)N2c2ccc(Br)cc2)c1 (single isomer, unassigned) [Compound 126-1]
24 | < 1000 nM | – | CC[C@H]1N(c2ccc(F)cc2)C(=O)N(c2ccc(F)cc2)C1(O)c1cccc(C#N)c1 (stereo partly drawn) [Compound 123-2, 3-((5R)-5-ethyl-1,3-bis(4-fluorophenyl)-4-hydroxy-2-oxoimidazolidin-4-yl)benzonitrile]
25 | – | < 1000 nM | CN1CC2(C1)N(c1ccc(Cl)cc1)C(=O)N(c1ccc(Cl)cc1)C2(O)c1cccc(C#N)c1 (stereo not shown) [Compound 301, 3-(5,7-bis(4-chlorophenyl)-8-hydroxy-2-methyl-6-oxo-2,5,7-triazaspiro[3.4]octan-8-yl)benzonitrile 2,2,2-trifluoroacetate]
26 | – | < 1000 nM | O=C1N(c2ccc(Cl)cc2)C2(CCC2)C(O)(c2cccc(OC(F)(F)F)c2)N1c1ccccc1 (stereo not shown) [Example 332, 5-(4-chlorophenyl)-8-hydroxy-7-phenyl-8-(3-(trifluoromethoxy)phenyl)-5,7-diazaspiro[3.4]octan-6-one]
27 | < 1000 nM | – | N#Cc1cccc(-c2c(C3CC3)n(-c3ccc(Cl)cc3)c(=O)n2-c2ccc(Cl)cc2)c1 [Example 48, 3-(1,3-bis(4-chlorophenyl)-5-cyclopropyl-2-oxo-2,3-dihydro-1H-imidazol-4-yl)benzonitrile]
28 | 10000 to 50000 nM | – | O=C1N(c2ccc(Br)cc2)C(=O)C(O)(c2ccc(F)cc2)N1c1ccc(Br)cc1 (stereo not shown) [Example 172, 1,3-bis(4-bromophenyl)-5-(4-fluorophenyl)-5-hydroxyimidazolidine-2,4-dione]
29 | < 1000 nM | – | COC[C@@H]1N(c2ccc(Cl)cc2)C(=O)N(c2ccc(Cl)cc2)C1(O)c1cccc(C(F)(F)F)c1 (stereo partly drawn) [Compound 92-1, (5S)-1,3-bis(4-chlorophenyl)-4-hydroxy-5-(methoxymethyl)-4-(3-(trifluoromethyl)phenyl)imidazolidin-2-one]
30 | – | < 1000 nM | N#Cc1ccc(N2C(=O)N(c3ccc(Cl)cc3)C3(CCC3)C2(O)c2cccc(C#N)c2)cc1 (stereo not shown) [Compound 289, 3-(5-(4-chlorophenyl)-7-(4-cyanophenyl)-8-hydroxy-6-oxo-5,7-diazaspiro[3.4]octan-8-yl)benzonitrile]

Row | SMILES | IC50 | IC50 [1]
31 | N#Cc1ccc(N2C(=O)N(c3ccc(Br)cc3)C(O)(c3cccc(C#N)c3)C23CCC3)cc1 (stereo not shown) [Compound 295, 3-(7-(4-bromophenyl)-5-(4-cyanophenyl)-8-hydroxy-6-oxo-5,7-diazaspiro[3.4]octan-8-yl)benzonitrile] | – | < 1000 nM
32 | CCC[C@]1(C)N(c2ccc(C#N)cc2)C(=O)N(c2ccc(C#N)cc2)C1(O)c1cccc(OC(F)(F)F)c1 (stereo partly drawn) [Example 320-2, 4,4′-((5S)-4-hydroxy-5-methyl-2-oxo-5-propyl-4-(3-(trifluoromethoxy)phenyl)imidazolidine-1,3-diyl)dibenzonitrile] | – | < 1000 nM
33 | CCC1N(c2ccc(Br)cc2)C(=O)N(c2ccc(Br)cc2)C1(O)c1ccccc1 (stereo not shown) [Example 25, 1,3-bis(4-bromophenyl)-5-ethyl-4-hydroxy-4-phenylimidazolidin-2-one] | < 1000 nM | –
34 | C[C@H]1N(c2ccc(Cl)cc2)C(=O)N(c2ccc(Cl)cc2)C1(O)c1cccc(C(F)(F)F)c1 (stereo partly drawn) [Compound 77-2, (5R)-1,3-bis(4-chlorophenyl)-4-hydroxy-5-methyl-4-(3-(trifluoromethyl)phenyl)imidazolidin-2-one] | < 1000 nM | –
